Results reported in PubChem BioAssay (NCI).
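A five-concentration, 48-hour dose response in 96-well plates underlies each endpoint, interpolated linearly between surrounding concentrations. At the GI50, growth is halved. The concentration for full growth arrest is given as TGI.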

Legend:
Test in all cases: inhibition of tumour cell growth, NCI panel, 48 h
MOLT-4 leukemia = tested on: MOLT-4 leukemia
PC-3 prostate = tested on: PC-3 prostate
OVCAR-5 ovarian = tested on: OVCAR-5 ovarian
SK-MEL-5 melanoma = tested on: SK-MEL-5 melanoma
OVCAR-3 ovarian = tested on: OVCAR-3 ovarian
SK-MEL-28 melanoma = tested on: SK-MEL-28 melanoma
SF-539 CNS = tested on: SF-539 CNS
HCT-15 colon = tested on: HCT-15 colon
NCI-H23 lung = tested on: NCI-H23 lung
M14 melanoma = tested on: M14 melanoma
BT-549 breast = tested on: BT-549 breast
RPMI-8226 leukemia = tested on: RPMI-8226 leukemia
SF-268 CNS = tested on: SF-268 CNS
786-0 renal = tested on: 786-0 renal
K-562 leukemia = tested on: K-562 leukemia
HL-60(TB) leukemia = tested on: HL-60(TB) leukemia
SNB-75 CNS = tested on: SNB-75 CNS
MDA-MB-435 = tested on: MDA-MB-435
MALME-3M melanoma = tested on: MALME-3M melanoma
UACC-257 melanoma = tested on: UACC-257 melanoma
CCRF-CEM leukemia = tested on: CCRF-CEM leukemia
SR leukemia = tested on: SR leukemia
HOP-62 NSCLC = tested on: HOP-62 NSCLC
A549 NSCLC = tested on: A549 NSCLC
DU-145 prostate = tested on: DU-145 prostate
OVCAR-4 ovarian = tested on: OVCAR-4 ovarian
NCI-H226 lung = tested on: NCI-H226 lung
U251 CNS = tested on: U251 CNS
ACHN renal = tested on: ACHN renal
HT29 colon = tested on: HT29 colon
HCT-116 colon = tested on: HCT-116 colon
LOX IMVI melanoma = tested on: LOX IMVI melanoma
T-47D breast = tested on: T-47D breast
NCI/ADR-RES ovarian = tested on: NCI/ADR-RES ovarian
UO-31 renal = tested on: UO-31 renal
NCI-H522 lung = tested on: NCI-H522 lung
OVCAR-8 ovarian = tested on: OVCAR-8 ovarian
HCC-2998 colon = tested on: HCC-2998 colon
EKVX NSCLC = tested on: EKVX NSCLC
NCI-H460 lung = tested on: NCI-H460 lung
RXF 393 renal = tested on: RXF 393 renal
SK-OV-3 ovarian = tested on: SK-OV-3 ovarian
CAKI-1 renal = tested on: CAKI-1 renal
HOP-92 NSCLC = tested on: HOP-92 NSCLC
MDA-MB-231 breast = tested on: MDA-MB-231 breast
KM12 colon = tested on: KM12 colon
A498 renal = tested on: A498 renal
COLO 205 colon = tested on: COLO 205 colon
HS 578T breast = tested on: HS 578T breast
SF-295 CNS = tested on: SF-295 CNS
IGROV1 ovarian = tested on: IGROV1 ovarian
MDA-MB-468 breast = tested on: MDA-MB-468 breast
SN12C renal = tested on: SN12C renal
SW-620 colon = tested on: SW-620 colon
SNB-19 CNS = tested on: SNB-19 CNS
MCF7 breast = tested on: MCF7 breast
SK-MEL-2 melanoma = tested on: SK-MEL-2 melanoma
TK-10 renal = tested on: TK-10 renal
UACC-62 melanoma = tested on: UACC-62 melanoma

Compound: OC1CCC(Cn2c(C(F)(F)F)cc3c(Cl)ncnc32)CC1 (stereo not drawn)
- GI50 (MOLT-4 leukemia): 2.77 µM
- TGI (MOLT-4 leukemia): 8.15 µM
- GI50 (PC-3 prostate): 9.01 µM
- TGI (PC-3 prostate): 36.3 µM
- GI50 (OVCAR-5 ovarian): > 100 µM
- TGI (OVCAR-5 ovarian): > 100 µM
- GI50 (SK-MEL-5 melanoma): 4.81 µM
- TGI (SK-MEL-5 melanoma): 16.7 µM
- GI50 (OVCAR-3 ovarian): 8.04 µM
- TGI (OVCAR-3 ovarian): 29.1 µM
- GI50 (SK-MEL-28 melanoma): 9.38 µM
- TGI (SK-MEL-28 melanoma): 30.8 µM
- GI50 (SF-539 CNS): 17.7 µM
- TGI (SF-539 CNS): 39 µM
- GI50 (HCT-15 colon): 3.69 µM
- TGI (HCT-15 colon): 20.1 µM
- GI50 (NCI-H23 lung): 3.08 µM
- TGI (NCI-H23 lung): 11.4 µM
- GI50 (M14 melanoma): 4.94 µM
- TGI (M14 melanoma): 27 µM
- GI50 (BT-549 breast): 13.1 µM
- TGI (BT-549 breast): 27.9 µM
- GI50 (RPMI-8226 leukemia): 34 µM
- TGI (RPMI-8226 leukemia): > 100 µM
- GI50 (SF-268 CNS): 2.52 µM
- TGI (SF-268 CNS): 6.89 µM
- GI50 (786-0 renal): 32.1 µM
- TGI (786-0 renal): > 100 µM
- GI50 (K-562 leukemia): 2.88 µM
- TGI (K-562 leukemia): > 100 µM
- GI50 (HL-60(TB) leukemia): 2.62 µM
- TGI (HL-60(TB) leukemia): 9.01 µM
- GI50 (SNB-75 CNS): 10.8 µM
- TGI (SNB-75 CNS): 23.1 µM
- GI50 (MDA-MB-435): 12.1 µM
- TGI (MDA-MB-435): 25.8 µM
- GI50 (MALME-3M melanoma): 17.7 µM
- TGI (MALME-3M melanoma): 64.5 µM
- GI50 (UACC-257 melanoma): 3.4 µM
- TGI (UACC-257 melanoma): 14.1 µM
- GI50 (CCRF-CEM leukemia): 5.56 µM
- TGI (CCRF-CEM leukemia): > 100 µM
- GI50 (SR leukemia): 2.14 µM
- TGI (SR leukemia): 6.78 µM
- GI50 (HOP-62 NSCLC): 19.7 µM
- TGI (HOP-62 NSCLC): 57.6 µM
- GI50 (A549 NSCLC): 30.8 µM
- TGI (A549 NSCLC): > 100 µM
- GI50 (DU-145 prostate): 7.87 µM
- TGI (DU-145 prostate): 20.5 µM
- GI50 (OVCAR-4 ovarian): 17.8 µM
- TGI (OVCAR-4 ovarian): 47.2 µM
- GI50 (NCI-H226 lung): 23.4 µM
- TGI (NCI-H226 lung): 79.7 µM
- GI50 (U251 CNS): 3.21 µM
- TGI (U251 CNS): 12.8 µM
- GI50 (ACHN renal): 8.76 µM
- TGI (ACHN renal): 49.9 µM
- GI50 (HT29 colon): 15.6 µM
- TGI (HT29 colon): > 100 µM
- GI50 (HCT-116 colon): 3.56 µM
- TGI (HCT-116 colon): 15.8 µM
- GI50 (LOX IMVI melanoma): 1.71 µM
- TGI (LOX IMVI melanoma): 3.15 µM
- GI50 (T-47D breast): 26.5 µM
- TGI (T-47D breast): > 100 µM
- GI50 (NCI/ADR-RES ovarian): 26.1 µM
- TGI (NCI/ADR-RES ovarian): > 100 µM
- GI50 (UO-31 renal): 15.1 µM
- TGI (UO-31 renal): 65.8 µM
- GI50 (NCI-H522 lung): 1.54 µM
- TGI (NCI-H522 lung): 3.55 µM
- GI50 (OVCAR-8 ovarian): 2.29 µM
- TGI (OVCAR-8 ovarian): 5.39 µM
- GI50 (HCC-2998 colon): 1.8 µM
- TGI (HCC-2998 colon): 3.33 µM
- GI50 (EKVX NSCLC): 12.9 µM
- TGI (EKVX NSCLC): 38.7 µM
- GI50 (NCI-H460 lung): 4.76 µM
- TGI (NCI-H460 lung): 16.6 µM
- GI50 (RXF 393 renal): 12.5 µM
- TGI (RXF 393 renal): 35 µM
- GI50 (SK-OV-3 ovarian): 22.4 µM
- TGI (SK-OV-3 ovarian): > 100 µM
- GI50 (CAKI-1 renal): 16.8 µM
- TGI (CAKI-1 renal): 52.8 µM
- GI50 (HOP-92 NSCLC): 20.6 µM
- TGI (HOP-92 NSCLC): 64.6 µM
- GI50 (MDA-MB-231 breast): 4.45 µM
- TGI (MDA-MB-231 breast): 20.1 µM
- GI50 (KM12 colon): 26.4 µM
- TGI (KM12 colon): 94.3 µM
- GI50 (A498 renal): > 100 µM
- TGI (A498 renal): > 100 µM
- GI50 (COLO 205 colon): 24.4 µM
- TGI (COLO 205 colon): > 100 µM
- GI50 (HS 578T breast): 13.8 µM
- TGI (HS 578T breast): 53.6 µM
- GI50 (SF-295 CNS): 22.7 µM
- TGI (SF-295 CNS): 84 µM
- GI50 (IGROV1 ovarian): 1.97 µM
- TGI (IGROV1 ovarian): 4.07 µM
- GI50 (MDA-MB-468 breast): 2.14 µM
- TGI (MDA-MB-468 breast): 5.69 µM
- GI50 (SN12C renal): 5.36 µM
- TGI (SN12C renal): 19.8 µM
- GI50 (SW-620 colon): 12.2 µM
- TGI (SW-620 colon): 38.8 µM
- GI50 (SNB-19 CNS): 13.4 µM
- TGI (SNB-19 CNS): 26.8 µM
- GI50 (MCF7 breast): 36.9 µM
- TGI (MCF7 breast): > 100 µM
- GI50 (SK-MEL-2 melanoma): 13.2 µM
- TGI (SK-MEL-2 melanoma): 27.9 µM
- GI50 (TK-10 renal): > 100 µM
- TGI (TK-10 renal): > 100 µM
- GI50 (UACC-62 melanoma): 5.4 µM
- TGI (UACC-62 melanoma): 19.3 µM
